Assay results published in publication PMC12814167, “Optimizing Stability in Dynamic Small-Molecule Binding Proteins” (Journal of the American Chemical Society, 2025).
Like-named read-outs stand apart in the source and are kept apart here.

How the values were obtained:
[1] = biological target: MBP.1; assay: Isothermal titration calorimetry of the purified protein with its cognate ligand at 25 °C in SEC running buffer (25 mM sodium phosphate, 500 mM NaCl, pH 7.4), fitted with a one-site binding model.; conditions: SD, n = 3
Protocol: (§1) Ligands were dissolved in the specific buffer that was used in the size-exclusion chromatography (SEC) run of each protein purification (stored at −20 °C and thawed on the day of use). All protein and ligand samples were degassed and the temperature equilibrated to 25 °C for at least 10 min using a degassing station (TA Instruments). 400 μL of protein samples was loaded into the sample cell of a low volume AffinityITC machine with gold cell (TA Instruments) and ligand solutions were added into the injection syringe (protein and ligand concentrations can be found in Table S5). ITC measurements were performed at 25 °C with 20 injections of 2.5 μL (one initial injection of 0.5 μL was excluded from analysis), an adaptive injection interval, and stirring rate of 125 rpm. Subtractions of constant heat of dilution values for each ligand, peak integration, and fitting with a one-site binding model were done with NanoAnalyze (TA Instruments). The reported errors reflect the standard deviation of three technical replicas.

[2] = biological target: MBP.2; assay: as above; conditions: n = 3
Protocol: as §1

[3] = biological target: MBP.3; assay: as above; conditions: SD, n = 3
Protocol: as §1

[4] = biological target: MBP.4; assay: as above; conditions: SD, n = 3
Protocol: as §1

[5] = biological target: T1, LAO.0 (Salmonella enterica, UniProt P02911); assay: as above; conditions: SD, n = 3
T1 construct: gene argT
Protocol: as §1

[6] = biological target: LAO.1; assay: as above; conditions: SD, n = 3
Protocol: as §1

[7] = biological target: LAO.2; assay: as above; conditions: SD, n = 3
Protocol: as §1

[8] = biological target: LAO.3; assay: as above; conditions: SD, n = 3
Protocol: as §1

[9] = biological target: LAO.4; assay: as above; conditions: SD, n = 3
Protocol: as §1

[10] = biological target: TphC.0; assay: as above; conditions: SD, n = 3
Protocol: as §1

[11] = biological target: TphC.1; assay: as above; conditions: SD, n = 3
Protocol: as §1

[12] = biological target: TphC.2; assay: as above; conditions: SD, n = 3
Protocol: as §1

[13] = biological target: TphC.3; assay: as above; conditions: SD, n = 3
Protocol: as §1

[14] = biological target: TphC.4; assay: as above; conditions: SD, n = 3
Protocol: as §1

[15] = biological target: PotF.2; conditions: SD, n = 3
Protocol: as §1

[16] = biological target: PotF.4; conditions: SD, n = 3
Protocol: as §1

[17] = biological target: PotF.0 (Escherichia coli, UniProt P31133); assay: Isothermal titration calorimetry of the purified protein with its cognate ligand at 25 °C in SEC running buffer (25 mM sodium phosphate, 500 mM NaCl, pH 7.4), fitted with a one-site binding model.; conditions: SD, n = 3
Protocol: as §1

[18] = biological target: PotF.1 (Escherichia coli, UniProt P31133, A203P/A327P/A339P/E108N/E331D/F129Y/F266Y/F313Y/K122Q/K202N/M131I/N154D/S178A/S252A/S265A/S267T/S326N/T322L/V186I/V264I/V305M/V46I); assay: as above; conditions: SD, n = 3
Protocol: as §1

[19] = biological target: PotF.3 (Escherichia coli, UniProt P31133, A339P/E108N/E331D/F129Y/F266Y/K202N/N154D/S178A/S252A/S265A/T94S/V186I); assay: as above; conditions: SD, n = 3
Protocol: as §1

[20] = CD thermal melt (Tmelt) of apo protein; type: physicochemical; conditions: CD at 222 nm, 20 to 95 °C, 1 °C/min, apo protein 0.2 mg/mL, pH 7.4, error from fit uncertainty
Protocol: To remove salts, protein samples were dialyzed overnight against 2 L of CD buffer (25 mM NaH2PO4/Na2HPO4, pH 7.4) using a 10 kDa molecular weight cutoff. Aggregated protein was removed by centrifugation at 15 000g for 5 min using a tabletop centrifuge (Eppendorf 5427R). Next, the protein concentration was adjusted to 0.3 mg/mL and verified photometrically. 200 μL of protein samples were mixed with either 100 μL of CD buffer or 100 μL of ligand solution (300 μM stocks of ligand solubilized in CD buffer) to reach a final concentration of 100 μM for the ligands and 0.2 mg/mL for the protein. CD spectra and thermal melt experiments were obtained on a JASCO J-1500 instrument using a glass cuvette with a 1 mm path length. For CD spectra, the following settings were used: wavelengths 240–190 nm, bandwidth 1 nm, response time 2 s, data pitch 0.1 nm, scanning speed 100 nm/min, and ten accumulations (for buffer controls only one accumulation was used). For Tmelt measurements, the following settings were used: wavelength of 222 nm, temperature range from 20 to 95 °C controlled by a Pelletier AWC100 (Julabo) using a slope of 1 °C/min, a bandwidth of 1 nm, and a response time of 2 s. Raw CD data were normalized by subtraction of the respective buffer data and subsequent conversion of the measured signal in millidegree to mean residue molar ellipticity. To obtain the apparent melting temperature T m, thermal melt data were fit using a sigmoidal equation according to Niklasson et al. The error plotted stems from the fit function uncertainty.

[21] = Isothermal titration calorimetry, LAO variants with L-lysine; type: binding; conditions: ITC, 25 °C
Excerpt: buffer-lysine 1 - 3 - 300
Supporting Table 5. Protein and ligand concentrations for ITC measurements

[22] = set-up: method as in previously published binding constants; conditions: wild type LAO; ref previously published binding constants; read-out: binding constant; cited from earlier work
[23] = Isothermal titration calorimetry, PotF variants with putrescine; type: binding; conditions: ITC, 25 °C
Excerpt: Protein Design ID Experimental Protein Ligand target repeat concentration concentration (µM) […]

[24] = set-up: method as in previously published binding constants; conditions: wild type PotF; ref previously published binding constants; read-out: binding constant; cited from earlier work

Sequence of PotF.1 (P31133 other isoform, or with tags, fused parts or gaps with the stated changes): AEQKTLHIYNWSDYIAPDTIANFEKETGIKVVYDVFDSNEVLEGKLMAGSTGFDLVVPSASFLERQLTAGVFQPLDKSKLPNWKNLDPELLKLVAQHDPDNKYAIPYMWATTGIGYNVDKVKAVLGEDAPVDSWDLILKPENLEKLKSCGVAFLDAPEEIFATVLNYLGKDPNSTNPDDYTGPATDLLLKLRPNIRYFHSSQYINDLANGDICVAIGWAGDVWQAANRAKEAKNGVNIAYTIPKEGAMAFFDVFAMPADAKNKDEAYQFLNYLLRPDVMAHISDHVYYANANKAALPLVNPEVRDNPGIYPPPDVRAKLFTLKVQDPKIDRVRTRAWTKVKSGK
Sequence of PotF.3 (P31133 27-370 T94S/E108N/F129Y/N154D/S178A/V186I/K202N/S252A/S265A/F266Y/E331D/A339P): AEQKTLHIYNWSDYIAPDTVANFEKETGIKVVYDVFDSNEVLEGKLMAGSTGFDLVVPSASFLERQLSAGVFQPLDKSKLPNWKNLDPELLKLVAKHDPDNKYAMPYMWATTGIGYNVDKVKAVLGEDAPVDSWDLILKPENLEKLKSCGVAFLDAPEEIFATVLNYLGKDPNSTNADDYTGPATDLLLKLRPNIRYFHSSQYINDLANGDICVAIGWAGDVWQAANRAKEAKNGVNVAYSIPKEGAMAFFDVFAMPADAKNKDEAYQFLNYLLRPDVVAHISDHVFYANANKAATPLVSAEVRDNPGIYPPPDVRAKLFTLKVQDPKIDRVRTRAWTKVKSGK

## maltose
[1]
  Kd: 1310 ± 293 nM
[2]
  Kd: < 10000 nM
[3]
  Kd: 450 ± 44 nM
[4]
  Kd: 2960 ± 675 nM

## NCCCC[C@H](N)C(=O)O [L-lysine]
[5]
  Kd: 93 ± 35 nM
[6]
  Kd: 2500 ± 211 nM
[7]
  Kd: 612 ± 56 nM
[8]
  Kd: 824 ± 18 nM
[9]
  Kd: 150 ± 21 nM

## O=C(O)c1ccc(C(=O)O)cc1 [terephthalic acid]
[10]
  Kd: 1180 ± 250 nM
[11]
  Kd: 5750 ± 709 nM
[12]
  Kd: 627 ± 69 nM
[13]
  Kd: 716 ± 91 nM
[14]
  Kd: 282 ± 39 nM

## NCCCCN [putrescine]
[15]
  Kd: 42 ± 12 nM
[16]
  Kd: 103 ± 10 nM
[17]
  Kd: 42 ± 3 nM
[18]
  Kd: 479 ± 12 nM
[19]
  Kd: 101 ± 17 nM

B1: LAO.0: wild type L-lysine/L-arginine/L-ornithine binding protein LAO, Salmonella typhimurium, used as control (protein, UniProt P02911 23-260, looked up)
Lysine/arginine/ornithine-bind …: ALPQTVRIGTDTTYAPFSSKDAKGEFIGFDIDLGNEMCKRMQVKCTWVASDFDALIPSLKAKKIDAIISSLSITDKRQQEIAFSDKLYAADSRLIAAKGSPIQPTLESLKGKHVGVLQGSTQEAYANDNWRTKGVDVVAYANQDLIYSDLTAGRLDAALQDEVAASEGFLKQPAGKEYAFAGPSVKDKKYFGDGTGVGLRKDDTELKAAFDKALTELRQDGTYDKMAKKYFDFNVYGD
[20]
  apparent T m: 47 ± 0.1 °C
[20]; listed as LAO
  apparent T m: 47 °C
[21]
  -TΔS: 3.56 ± 0.382 kcal/mol
  ΔG: -9.61 ± 0.22 kcal/mol
  ΔH: -13.2 ± 0.22 kcal/mol
[22]
  Kd: 232 ± 106 nM

B2: PotF.0: wild type putrescine-binding protein PotF, Escherichia coli (strain K12), used as control (protein, UniProt P31133 27-370, looked up)
Putrescine-binding …: AEQKTLHIYNWSDYIAPDTVANFEKETGIKVVYDVFDSNEVLEGKLMAGSTGFDLVVPSASFLERQLTAGVFQPLDKSKLPEWKNLDPELLKLVAKHDPDNKFAMPYMWATTGIGYNVDKVKAVLGENAPVDSWDLILKPENLEKLKSCGVSFLDAPEEVFATVLNYLGKDPNSTKADDYTGPATDLLLKLRPNIRYFHSSQYINDLANGDICVAIGWAGDVWQASNRAKEAKNGVNVSFSIPKEGAMAFFDVFAMPADAKNKDEAYQFLNYLLRPDVVAHISDHVFYANANKAATPLVSAEVRENPGIYPPADVRAKLFTLKVQDPKIDRVRTRAWTKVKSGK
[20]
  apparent T m: 63 ± 0.4 °C
[20]; listed as PotF
  apparent T m: 63 °C
[23]
  -TΔS: 11.2 ± 0.287 kcal/mol
  ΔG: -10.1 ± 0.048 kcal/mol
  ΔH: -21.2 ± 0.263 kcal/mol
[24]
  Kd: 68 ± 40 nM
